Experimental data published in patent US12059407B2, “Compositions and methods for delivery of macromolecules” (The Regents of the University of California, priority 2017, dated 2024).

What was measured:
HEK293T cells [1] = assay: Model study with Saporin: protein delivery; assay type: cell-based; conditions: HEK293T cells treated with only Saporin or only compound 1
HEK293T cells [2] = assay: Cytotoxicity assay in HEK293T cells; assay type: cell-based

| Substance | cell death, single agent only (HEK293T cells [1]) | CC50 (HEK293T cells [2]) |
| --- | --- | --- |
| Saporin | no cell death |  |
| Triton X |  | 59 µM |
